Biological target: T1, Human M4 (Homo sapiens, UniProt P08173)
T1 construct: expressed in transfected cells; host or cells: CHO-K1 (ATCC), co-transfected with chimeric G protein Gqi5
T1 sequence (P08173 1-479): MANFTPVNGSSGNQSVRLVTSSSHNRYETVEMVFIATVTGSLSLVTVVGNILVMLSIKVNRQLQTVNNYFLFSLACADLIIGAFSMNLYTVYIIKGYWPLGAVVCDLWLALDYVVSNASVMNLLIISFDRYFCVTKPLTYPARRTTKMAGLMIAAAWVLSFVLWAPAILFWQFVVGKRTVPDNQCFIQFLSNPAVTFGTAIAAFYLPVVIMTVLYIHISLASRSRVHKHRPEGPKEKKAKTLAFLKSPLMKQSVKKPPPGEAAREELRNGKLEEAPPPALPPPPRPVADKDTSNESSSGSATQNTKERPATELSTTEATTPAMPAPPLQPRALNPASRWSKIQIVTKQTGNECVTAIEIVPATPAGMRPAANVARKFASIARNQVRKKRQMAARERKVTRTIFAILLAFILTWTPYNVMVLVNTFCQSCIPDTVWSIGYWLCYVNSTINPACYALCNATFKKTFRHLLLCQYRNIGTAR
Experiment: mAChR M4 cell-based functional assay (calcium flux, antagonism of EC80 acetylcholine response)
Settings: M4/Gqi5/CHO-K1 cells; for remaining activity at 30 µM: CHO-K1, % ACh maximum at 30 μM, read-out: Human M4 Emin; for IC50: decrease of response elicited by EC80 acetylcholine
Description: Human or rat M4 cDNA, along with the chimeric G protein Gqi5, were transfected into Chinese hamster ovary (CHO-K1) cells purchased from the American Type Culture Collection using Lipofectamine2000. M4/Gqi5/CHO cells were grown in Ham's F-12 medium containing 10% heat-inactivated fetal bovine serum (FBS), 20 mM HEPES, 500 μg/mL G418 sulfate, and 200 μg/mL Hygromycin B.
For high throughput measurement of agonist-evoked increases in intracellular calcium, CHO-K1 cells stably expressing muscarinic receptors were plated in growth medium lacking G418 and hygromycin at 15,000 cells/20 μL/well in Greiner 384-well black-walled, tissue culture (TC)-treated, clear-bottom plates (VWR). Cells were incubated overnight at 37° C. and 5% CO2. The next day, cells were washed using an ELX 405 (BioTek) with assay buffer; the final volume was then aspirated to 20 μL. Next, 20 μL of a 2.3 μM stock of Fluo-4/acetoxymethyl ester (Invitrogen, Carlsbad, Calif.), prepared as a 2.3 mM stock in DMSO and mixed in a 1:1 ratio with 10% (w/v) Pluronic F-127 and diluted in assay buffer, was added to the wells and the cell plates were incubated for 50 min at 37° C. and 5% CO2. Dye was removed by washing with the ELX 405 and the final volume was aspirated to 20 μL. Compound master plates were formatted in a 10 point concentration-response curve (CRC) format (1:3 dilutions) in 100% DMSO with a starting concentration of 10 or 1 mM using a BRAVO liquid handler (Agilent). Test compound CRCs were then transferred to daughter plates (240 nL) using the Echo acoustic plate reformatter (Labcyte, Sunnyvale, Calif.) and then diluted into assay buffer (40 μL) to a 2× stock using a Thermo Fisher Combi (Thermo Fisher Scientific, Waltham, Mass.).
Calcium flux was measured using the Functional Drug Screening System (FDSS) 6000 or 7000 (Hamamatsu Corporation, Tokyo, Japan) as an increase in the fluorescent static ratio. Compounds were applied to cells (20 μL, 2×) using the automated system of the FDSS at 2 seconds into the protocol and the data were collected at 1 Hz. At 143 s, 10 μL of an EC20 concentration of the muscarinic receptor agonist acetylcholine was added (5×), followed by the addition of 12 μL of an EC80 concentration of acetylcholine at the 268 s time point (5×). Agonist activity was analyzed as a concentration-dependent increase in calcium mobilization upon compound addition. Positive allosteric modulator activity was analyzed as a concentration-dependent increase in the EC20 acetylcholine response. Antagonist activity was analyzed as a concentration-dependent decrease in the EC80 acetylcholine response; for the purposes of the tables herein, an IC50 (inhibitory concentration 50) was calculated as a concentration-dependent decrease of the response elicited by an EC80 concentration of acetylcholine. Concentration-response curves were generated using a four-parameter logistical equation in XLFit curve fitting software (IDBS, Bridgewater, N.J.) for Excel (Microsoft, Redmond, Wash.) or Prism (GraphPad Software, Inc., San Diego, Calif.) or the Dotmatics software platform (Dotmatics, Bishop's Stortford, UK).
Compounds were synthesized as described above. Activity (IC50 and Emin) was determined in the mAChR M4 cell-based functional assay as described above and the data are shown in Table 2.

Row | remaining activity at 30 µM [%] | IC50 [nM] | SMILES
1 | 3 | 1.08 | Cc1cc(N[C@H]2C[C@@H]3CN(CC4CCOCC4)C[C@@H]3C2)nnc1-c1ccc2nn(C)cc2c1C [compound 16, (3aR,5s,6aS)-N-(6-(2,4-dimethyl-2H-indazol-5-yl)-5-methylpyridazin-3-yl)-2-((tetrahydro-2H-pyran-4-yl)methyl)octahydrocyclopenta[c]pyrrol-5-amine]
2 | 3 | 0.58 | [2H]C([2H])(C1CCOCC1)N1C[C@H]2C[C@H](Nc3cc(C)c(-c4cc(F)ccc4F)nn3)C[C@H]2C1 [compound 17, (3aR,5s,6aS)-N-(6-(2,5-difluorophenyl)-5-methylpyridazin-3-yl)-2-((tetrahydro-2H-pyran-4-yl)methyl-d2)octahydrocyclopenta[c]pyrrol-5-amine]
3 | 3 | 0.44 | [2H]C([2H])(C1CCOCC1)N1C[C@H]2C[C@H](Nc3cc(C)c(-c4cc(F)ccc4Cl)nn3)C[C@H]2C1 [compound 18, (3aR,5s,6aS)-N-(6-(2-chloro-5-fluorophenyl)-5-methylpyridazin-3-yl)-2-((tetrahydro-2H-pyran-4-yl)methyl-d2)octahydrocyclopenta[c]pyrrol-5-amine]
4 | 4 | 1.62 | [2H]C([2H])(C1CCOCC1)N1C[C@H]2C[C@H](Nc3cc(C)c(-c4ccc5nn(C)cc5c4)nn3)C[C@H]2C1 [compound 19, (3aR,5s,6aS)-N-(5-methyl-6-(2-methyl-2H-indazol-5-yl)pyridazin-3-yl)-2-((tetrahydro-2H-pyran-4-yl)methyl-d2)octahydrocyclopenta[c]pyrrol-5-amine]
5 | 3 | 0.54 | [2H]C([2H])(C1CCOCC1)N1C[C@H]2C[C@H](Nc3nnc(-c4cc(F)ccc4C)cc3C)C[C@H]2C1 [compound 20, (3aR,5s,6aS)-N-(6-(5-fluoro-2-methylphenyl)-4-methylpyridazin-3-yl)-2-((tetrahydro-2H-pyran-4-yl)methyl-d2)octahydrocyclopenta[c]pyrrol-5-amine]
6 | 3 | 1.22 | [2H]C([2H])(C1CCOCC1)N1C[C@H]2C[C@H](Nc3nnc(-c4cccc(F)c4)cc3C)C[C@H]2C1 [compound 21, (3aR,5s,6aS)-N-(6-(3-fluorophenyl)-4-methylpyridazin-3-yl)-2-((tetrahydro-2H-pyran-4-yl)methyl-d2)octahydrocyclopenta[c]pyrrol-5-amine]
7 | 4 | 1.82 | [2H]C([2H])(C1CCOCC1)N1C[C@H]2C[C@H](Nc3nnc(-c4ccc5nn(C)cc5c4)cc3C)C[C@H]2C1 [compound 22, (3aR,5s,6aS)-N-(4-methyl-6-(2-methyl-2H-indazol-5-yl)pyridazin-3-yl)-2-((tetrahydro-2H-pyran-4-yl)methyl-d2)octahydrocyclopenta[c]pyrrol-5-amine]
8 | 3 | 0.59 | [2H]C([2H])(C1CCOCC1)N1C[C@H]2C[C@H](Nc3nnc(-c4ccc5nn(C)cc5c4C)cc3C)C[C@H]2C1 [compound 23, (3aR,5s,6aS)-N-(6-(2,4-dimethyl-2H-indazol-5-yl)-4-methylpyridazin-3-yl)-2-((tetrahydro-2H-pyran-4-yl)methyl-d2)octahydrocyclopenta[c]pyrrol-5-amine]
9 | 4 | 1.63 | [2H]C([2H])(C1CCOCC1)N1C[C@H]2C[C@H](Nc3nnc(-c4ccccc4)cc3C)C[C@H]2C1 [compound 24, (3aR,5s,6aS)-N-(4-methyl-6-phenylpyridazin-3-yl)-2-((tetrahydro-2H-pyran-4-yl)methyl-d2)octahydrocyclopenta[c]pyrrol-5-amine]
10 | 3 | 1.68 | [2H]C([2H])(C1CCOCC1)N1C[C@H]2C[C@H](Nc3nnc(-c4cc(F)ccc4F)cc3C(F)F)C[C@H]2C1 [compound 25, (3aR,5s,6aS)-N-(4-(difluoromethyl)-6-(2,5-difluorophenyl)pyridazin-3-yl)-2-((tetrahydro-2H-pyran-4-yl)methyl-d2)octahydrocyclopenta[c]pyrrol-5-amine]
11 | 3 | 263 | [2H]C([2H])(C1CCOCC1)N1C[C@H]2C[C@H](Nc3nnc(-c4cc(F)ccc4C)cc3C3CC3)C[C@H]2C1 [compound 26, (3aR,5s,6aS)-N-(4-cyclopropyl-6-(5-fluoro-2-methylphenyl)pyridazin-3-yl)-2-((tetrahydro-2H-pyran-4-yl)methyl-d2)octahydrocyclopenta[c]pyrrol-5-amine]
12 | 4 | 719 | [2H]C([2H])(C1CCOCC1)N1C[C@H]2C[C@H](Nc3nnc(-c4cc(F)ccc4F)cc3C3CC3)C[C@H]2C1 [compound 27, (3aR,5s,6aS)-N-(4-cyclopropyl-6-(2,5-difluorophenyl)pyridazin-3-yl)-2-((tetrahydro-2H-pyran-4-yl)methyl-d2)octahydrocyclopenta[c]pyrrol-5-amine]
13 | 3 | 186 | [2H]C([2H])(C1CCOCC1)N1C[C@H]2C[C@H](Nc3nnc(N4CCC(F)(F)CC4)cc3C3CC3)C[C@H]2C1 [compound 28, (3aR,5s,6aS)-N-(4-cyclopropyl-6-(4,4-difluoropiperidin-1-yl)pyridazin-3-yl)-2-((tetrahydro-2H-pyran-4-yl)methyl-d2)octahydrocyclopenta[c]pyrrol-5-amine]
14 | 2 | 60.7 | [2H]C([2H])(C1CCOCC1)N1C[C@H]2C[C@H](Nc3nnc(N4CCC(F)(F)CC4)cc3C3CCC3)C[C@H]2C1 [compound 29, (3aR,5s,6aS)-N-(4-cyclobutyl-6-(4,4-difluoropiperidin-1-yl)pyridazin-3-yl)-2-((tetrahydro-2H-pyran-4-yl)methyl-d2)octahydrocyclopenta[c]pyrrol-5-amine]
15 | 2 | 116 | [2H]C([2H])(C1CCOCC1)N1C[C@H]2C[C@H](Nc3nnc(-c4cc(F)ccc4F)cc3C3CCC3)C[C@H]2C1 [compound 30, (3aR,5s,6aS)-N-(4-cyclobutyl-6-(2,5-difluorophenyl)pyridazin-3-yl)-2-((tetrahydro-2H-pyran-4-yl)methyl-d2)octahydrocyclopenta[c]pyrrol-5-amine]
16 | 3 | 34.5 | [2H]C([2H])(C1CCOCC1)N1C[C@H]2C[C@H](Nc3nnc(-c4cc(F)ccc4C)cc3C3CCC3)C[C@H]2C1 [compound 31, (3aR,5s,6aS)-N-(4-cyclobutyl-6-(5-fluoro-2-methylphenyl)pyridazin-3-yl)-2-((tetrahydro-2H-pyran-4-yl)methyl-d2)octahydrocyclopenta[c]pyrrol-5-amine]
